Experimental data: patent US8614218B2, “Fused bicyclic pyrimidines” (Bayer Intellectual Property GmbH, priority 2007, dated 2013)

Assays:
Type in all cases: cell-based
[1] = system: OvCAR3 cells; assay: Cellular proliferation/cytotoxicity assay (Alamar Blue), OvCAR3; conditions: Homo sapiens, OVCAR-3, 72 h, Alamar Blue (Resazurin), read-out: Anti-proliferative/Cytotoxic activity (OvCAR3 cells)
Procedure: (§1) Cellular Proliferation/Cytotoxicity Assay:
(§2) The anti-proliferative activity of the compounds as described herein, is evaluated using the OvCAR3, HCT116 and A549 cell lines and the Alamar Blue (Resazurin) cell viability assay (O'Brien et al. Eur J Biochem 267, 5421-5426, 2000). Resazurin is reduced to the fluorescent resorufin by cellular dehydrogenase activity, correlating with viable, proliferating cells. Test compounds are dissolved as 10 mM solutions in DMSO and subsequently diluted. Cells like HCT116 or A549 cells were seeded into 96 well flat bottom plates at a density of 10000 cells/well (OvCAR3 cells), 1000 cells/well (HCT116 cells) or 2000 cells/well (A549 cells) in a volume of 200 μl/well. 24 hours after seeding, 1 μl each of the compound dilutions are added into each well of the 96 well plates. Each compound dilution is tested as at least as duplicates. Wells containing untreated control cells were filled with 200 μl DMEM (Dulbecco's Modified Eagle Medium) containing 0.5 vol % v:v DMSO. The cells are then incubated with the substances for 72 h at 37° C. in a humidified atmosphere containing 5 vol % CO2. To determine the viability of the cells, 20 μl of a Resazurin solution (90 mg/l) are added. After 4 h incubation at 37° C., the fluorescence is measured by extinction at λ=544 nm and an emission of λ=590 nm (Wallac Victor2; Perkin Elmer, USA). For the calculation of the cell viability, the emission value from untreated cells is set as 100% viability and the fluorescence intensity of treated cells are set in relation to the values of untreated cells. Viabilities are expressed as % values. The corresponding IC50 values of the compounds for cytotoxic activity are determined from the concentration-effect curves by means of non-linear regression. The analysis of the data is performed using a biostatistical program (GraphPad Prism, USA).
(§3) Representative IC50 values for anti-proliferative/cytotoxic potency determined in the aforementioned assay follow from the following table, in which the numbers of the compound correspond to the numbers of the examples.

[2] = system: A549 cells; assay: Cellular proliferation/cytotoxicity assay (Alamar Blue), A549; conditions: Homo sapiens, 72 h, Alamar Blue (Resazurin), read-out: Anti-proliterative/Cytotoxic activity (A549 cells)
Procedure: as §1, §2, §3

[3] = system: phospho-Akt (Ser473); assay: Cellular PI3K/Akt pathway assay (phospho-Akt ELISA); conditions: Homo sapiens, MCF7 cells, β-Heregulin stimulated, 48 h incubation
Description: Cellular PI3K/Akt Pathway Assay
In order to study the cellular activity of the compounds according to the present invention, an Enzyme Linked Immunosorbent Assay (ELISA)-based assay has been used specific phospho-AKT. The assay is based on a Sandwich ELISA kit (PathScan™ Phospho-Akt1 (Ser473); Cell Signaling, USA; #7160). The ELISA Kit detects endogenous levels of phosphorylated Akt protein. A phospho-Akt (Ser473) antibody (Cell Signaling, USA; #9271) has been coated onto the microwells. After incubation with cell lysates, the coated antibody captures the phosphorylated Akt protein. Following extensive washing, Akt1 monoclonal antibody (Cell Signaling, USA; #2967) is added to detect the captured phospho-Akt1 protein. HRP-linked anti-mouse antibody (HRP: horseradish peroxidase; Cell Signaling, USA; #7076) is then used to recognize the bound detection antibody. HRP substrate (=3,3′,5,5′-tetramethylbenzidine (TMB); Cell Signaling, USA; #7160) is added to develop colour. The magnitude of optical density for this developed color is proportional to the quantity of phosphorylated Akt protein.
MCF7 cells (ATCC HTB-22) are seeded into 96 well fate bottom plates at a density of 10000 cells/well. 24 hours after seeding, the cells are serum starved using low-serum medium (IMEM media including 0.1% charcoal treated FCS (FCS: fetal calf serum)). After 24 hours 1 μl each of the compound dilutions (test compounds were dissolved as 10 mM solutions in dimethylsulfoxide (DMSO) and subsequently diluted) are added into each well of the 96 well plates and incubated for 48 h at 37° C. in a humidified atmosphere containing 5% CO2. To stimulate Akt phosphorylation, β-Heregulin (20 ng/ml β-HRG) is added in parallel to the compounds. Wells containing unstimulated control cells (no β-Heregulin stimulation) are incubated with or without the diluted compound. Wells containing untreated control cells (no compound) are filled with medium containing 0.5% v:v DMSO and are or are not stimulated with β-Heregulin.
Cells are harvested and lysed with brief sonification in 1× cell lysis buffer (20 mM Tris (pH7.5), 150 mM NaCl, 1 mM ethylene diaminetetraacetate (EDTA), 1 mM ethylene glycolbis(2-aminoethyl)-N,N,N′,N′-tetraacetic acid (EGTA), 1 vol % Triton X-100, 2.5 mM sodium pyrophosphate, 1 mM β-glycerolphosphate, 1 mM Na3VO4, 1 μg/ml leupeptin). The lysate is centrifuged for 10 min. at 4° C. and the supernatant is transferred to a new tube. 100 μl of sample diluent (0.1 vol % Tween-20, 0.1 vol % sodium azide in phosphate buffered saline (PBS)) are added to a microcentrifuge tube and 100 μl of cell lysate are transferred into the tube and vortexed. 100 μl of each diluted cell lysate are added to the appropriate ELISA well, and incubated overnight at 4° C. The plates are washed 4 times with 1× wash buffer (1 vol % tween-20, 0.33 vol % thymol, in PBS). Next 100 μl of detection antibody (Akt1 (2H10) monoclonal detection antibody; Cell Signaling, USA; #2967) are added to each well and incubation continued for 1 h at 37° C. The washing procedure is repeated between each step. 100 μl of secondary antibody (anti-mouse IgG HRP-linked antibody; Cell Signaling, USA; #7076) are added to each well and incubated for 30 min. at 37° C. Than, 100 μl of TMB substrate (0.05% 3,3′,5,5′ tetramethylbenzidine, 0.1% hydrogen peroxide, complex polypeptides in a buffered solution; Cell Signaling, USA; #7160) are added to each well and incubated for 30 min. at 25° C. Finally 100 μl of STOP solution (0.05 vol % α and β unsaturated carbonyl compound) are added to each well and the plate are shaked gently. The absorbance is measured at λ=450 nm (Wallac Victor2; Perkin Elmer, USA) within 30 min. after adding the STOP solution. The analysis of the data is performed using a statistical program (Excel; Microsoft, USA). Preferred compounds show an inhibitory activity towards Akt phosphorylation below 10 μM.

Row | IC50 [3] [µM] | SMILES | IC50 [1] [µM] | IC50 [2] [µM]
1 | – | Cc1cnc2nc(-c3ccc(CN4CCC(c5n[nH]c(-c6ccccn6)n5)CC4)cc3)c(-c3ccccc3)cn12 [Example 14, 3-methyl-6-phenyl-7-(4-{[4-(5-pyridin-2-yl-1,2,4-triazol-3-yl)piperidin-1-yl]methyl}phenyl)imidazo[1,2-a]pyrimidine] | < 10 | < 10
2 | – | C=Cc1cnc2nc(-c3ccc(CN4CCC(c5n[nH]c(-c6ccccn6)n5)CC4)cc3)c(-c3ccccc3)cn12 [Example 15, 6-phenyl-7-(4-{[4-(5-pyridin-2-yl-1,2,4-triazol-3-yl)piperidin-1-yl]methyl}phenyl)-3-vinylimidazo[1,2-a]pyrimidine] | < 10 | > 10
3 | – | CCOC(=O)c1cn2cc(-c3ccccc3)c(-c3ccc(CN4CCC(c5n[nH]c(-c6ccccn6)n5)CC4)cc3)nc2n1 [Example 16, Ethyl 6-phenyl-7-(4-{[4-(5-pyridin-2-yl-1,2,4-triazol-3-yl)piperidin-1-yl]methyl}phenyl)imidazo[1,2-a]pyrimidine-2-carboxylate] | < 10 | > 10
4 | – | CCc1cn2cc(-c3ccccc3)c(-c3ccc(CN4CCC(c5n[nH]c(-c6ccccn6)n5)CC4)cc3)nc2n1 [Example 17, 2-ethyl-6-phenyl-7-(4-{[4-(5-pyridin-2-yl-1,2,4-triazol-3-yl)piperidin-1-yl]methyl}phenyl)imidazo[1,2-a]pyrimidine] | < 10 | < 10
5 | – | c1ccc(-c2cn3ccnc3nc2-c2ccc(CN3CCC(c4n[nH]c(-c5ncccn5)n4)CC3)cc2)cc1 [Example 18, 6-phenyl-7-(4-{[4-(5-pyrimidin-2-yl-1,2,4-triazol-3-yl)piperidin-1-yl]methyl}phenyl)imidazo[1,2-a]pyrimidine] | < 10 | > 10
6 | – | c1ccc(-c2cn3nccc3nc2-c2ccc(CN3CCC(c4n[nH]c(-c5ccccn5)n4)CC3)cc2)cc1 [Example 19, 6-phenyl-5-(4-{[4-(5-pyridin-2-yl-1,2,4-triazol-3-yl)piperidin-1-yl]methyl}phenyl)pyrazolo[1,5-a]pyrimidine] | < 10 | > 10
7 | – | c1ccc(-c2cn3ccnc3nc2-c2ccc(CN3CCC(n4cnc(-c5ccccn5)c4)CC3)cc2)cc1 [Example 20, 6-phenyl-7-(4-{[4-(4-pyridin-2-yl-imidazol-1-yl)piperidin-1-yl]methyl}phenyl)imidazo[1,2-a]pyrimidine] | < 10 | > 10
8 | – | c1ccc(-c2cn3ccnc3nc2-c2ccc(CN3CCC(c4n[nH]c(-c5cnccn5)n4)CC3)cc2)cc1 [Example 21, 6-phenyl-7-(4-{[4-(5-pyrazin-2-yl-1,2,4-triazol-3-yl)piperidin-1-yl]methyl}phenyl)imidazo[1,2-a]pyrimidine] | < 10 | > 10
9 | – | CCc1cnc2nc(-c3ccc(CN4CCC(c5n[nH]c(-c6ccccn6)n5)CC4)cc3)c(-c3ccccc3)cn12 [Example 22, 3-ethyl-6-phenyl-7-(4-{[4-(5-pyridin-2-yl-1,2,4-triazol-3-yl)piperidin-1-yl]methyl}phenyl)imidazo[1,2-a]pyrimidine] | < 10 | > 10
10 | < 1 | FC(F)(F)c1cn2cc(-c3ccccc3)c(-c3ccc(CN4CCC(c5n[nH]c(-c6ccccn6)n5)CC4)cc3)nc2n1 [Example 26, 6-phenyl-7-(4-{[4-(5-pyridin-2-yl-1H-1,2,4-triazol-3-yl)piperidin-1-yl]methyl}phenyl)-2-(trifluoromethyl)imidazo[1,2-a]pyrimidine] | – | < 10
11 | < 1 | Cc1nc2nc(-c3ccc(CN4CCC(c5n[nH]c(-c6ccccn6)n5)CC4)cc3)c(-c3ccccc3)c(C)n2n1 [Example 39, 2,7-Dimethyl-6-phenyl-5-(4-{[4-(5-pyridin-2-yl-1H-1,2,4-triazol-3-yl)piperidin-1-yl]methyl}phenyl)[1,2,4]triazolo[1,5-a]pyrimidine] | – | < 10
12 | < 1 | Cc1nc2nc(-c3ccc(CN4CCC(c5n[nH]c(-c6ncccn6)n5)CC4)cc3)c(-c3ccccc3)cn2n1 [Example 45, 2-Methyl-6-phenyl-5-(4-{[4-(5-pyrimidin-2-yl-1H-1,2,4-triazol-3-yl)piperidin-1-yl]methyl}phenyl)[1,2,4]triazolo[1,5-a]pyrimidine] | – | > 10
13 | < 1 | Cc1cc2nc(-c3ccc(CN4CCC(c5n[nH]c(-c6ccccn6)n5)CC4)cc3)c(-c3ccccc3)c(C)n2n1 [Example 49, 2,7-Dimethyl-6-phenyl-5-(4-{[4-(5-pyridin-2-yl-1H-1,2,4-triazol-3-yl)piperidin-1-yl]methyl}phenyl)pyrazolo[1,5-a]pyrimidine] | – | < 10
14 | < 1 | c1ccc(-c2nc(C3CCN(Cc4ccc(-c5nc6ccnn6cc5-c5ccsc5)cc4)CC3)n[nH]2)nc1 [Example 50, 5-(4-{[4-(5-Pyridin-2-yl-1H-1,2,4-triazol-3-yl)piperidin-1-yl]methyl}phenyl)-6-(3-thienyl)pyrazolo[1,5-a]pyrimidine] | – | < 10
